The values that follow come from patent US10294218B2 (VIROSTATICS SRL, priority 2012, dated 2019).

What all share (format): cell-based
The subject of series [1] is Primary T cells. Put plainly: Antiproliferative activity (AP), mitotic index by flow cytometry. The conditions noted are these: T-cell, read-out: AP50 (Inhibitory concentration 50% for antiproliferative capacity). The protocol:
Primary T cells are cultured and exposed to different concentrations of the test compounds. Cell proliferation is analysed by measuring mitotic index (ie the number of cell divisions a population of cells undergoes) through flow cytometry based techniques. Mitotic index is expressed as percentage of untreated control. Inhibition of cell proliferation (AP) is then calculated (AP=100 minus % mitotic index compared to control, AP of control=0%). Inhibitory concentration 50% for antiproliferative capacity (AP50) is calculated.
(§1) In Tables 2, 3 and 4, ND means Not Determined.

Series [2] deals with laboratory strain of HIV-1. Nature of the series: Antiviral activity against HIV (AV), p24 in infected activated primary T cells. The conditions noted are these: for IC50: Human immunodeficiency virus 1, T-cell, read-out: AV50 (Inhibitory concentration 50% for antiviral activity); for antiviral and antiproliferative activity and cytotoxicity profile (in words): summary of AV, AP and cytotoxicity assays. On the procedure: Activated primary T cells are infected with a laboratory strain of HIV-1, then cultured and exposed to different concentrations of the test compounds. HIV replication is analysed by measuring the viral protein p24 and expressed as percentage of untreated control. Inhibition of viral replication (AV) is then calculated (AV=100 minus the % p24 compared to control, AV of control=0%). Inhibitory concentration 50% for antiviral activity (AV50) is calculated.
as §1

Series [3] deals with Primary T cells. Put plainly: Cytotoxicity, percentage of viable cells by flow cytometry. To be noted: viability. The protocol: Primary T cells are cultured and treated with different concentrations of the test compound. Viability is analysed by measuring through flow cytometry based techniques the percentage of viable cells, compared to untreated control=100%).
as §1
A general note: In flow cytometry, cells or beads pass a laser one at a time.

Where two headings read alike, the source gives them in different places.

`COc1ccccc1-c1cc(Nc2ccc(N3CCN(C)CC3)c(S(N)(=O)=O)c2)ncn1` [Example 38, 5-(6-(2-Methoxyphenyl)pyrimidin-4-ylamino)-2-(4-methylpiperazin-1-yl)benzenesulfonamide]: the IC50 in series [1] (primary T cells, mitotic index) was over 500 nM; in series [2], under 1500 nM.
The matching figures for `CCOc1ccc(Nc2cc(-c3ccccc3OC)ncn2)cc1Cn1cnc2ccccc21` [Example 39, N-(3-((1H-Benzo[d]imidazol-1-yl)methyl)-4-ethoxyphenyl)-6-(2-methoxyphenyl)pyrimidin-4-amine]: 300 nM and over 1000 nM.
The matching figures for `COc1ccccc1-c1cc(Nc2ccc(F)c(Cn3cnc4ccccc43)c2)ncn1` [Example 40, N-(3-((1H-Benzo[d]imidazol-1-yl)methyl)-4-fluorophenyl)-6-(2-methoxyphenyl)pyrimidin-4-amine]: over 200 nM and 500 nM.
For `COc1ccc(Nc2cc(-c3ccccc3OC)ncn2)cc1N` [Example 41, 4-Methoxy-N1-(6-(2-methoxyphenyl)pyrimidin-4-yl)benzene-1,3-diamine], the values for the IC50 in series [1] and in series [2] were 80 nM and 60 nM, respectively. The “antiviral and antiproliferative activity and cytotoxicity profile (in words)” value in series [2] was “good antiviral and antiproliferative activity and a good cytotoxicity profile”.
`COc1ccc(Nc2cc(-c3ccccc3OC)ncn2)cc1CN` [Example 43, N-(3-(Aminomethyl)-4-methoxyphenyl)-6-(2-methoxyphenyl)pyrimidin-4-amine]: the IC50 in series [1] (primary T cells, mitotic index) is 500 nM. The “antiviral and antiproliferative activity and cytotoxicity profile (in words)” value in series [2] was “good antiviral and antiproliferative activity and a good cytotoxicity profile”.
`COc1ccc(Nc2cc(-c3ccccc3OC)ncn2)cc1C(N)=O` [Example 45, 2-methoxy-5-(6-(2-methoxyphenyl)pyrimidin-4-ylamino)benzamide]: the IC50 in series [1] worked out at 80 nM; in series [2] it was 50 nM. In series [2], the “antiviral and antiproliferative activity and cytotoxicity profile (in words)” value is “good antiviral and antiproliferative activity and a good cytotoxicity profile”.
As for `COc1ccc(Nc2cc(-c3ccccc3OC)ncn2)cc1C(=O)N(C)N` [Example 46, 2-Methoxy-5-[6-(2-methoxy-phenyl)-pyrimidin-4-ylamino]-benzoic acid N-methyl-hydrazide], in series [2], the IC50 was 5000 nM. Besides, in series [3], the “TD50 (Toxic dose 50%)” value is over 10 µM.
`COc1ccc(Nc2cc(-c3ccc(F)cc3OC)ncn2)cc1N` [Example 64]: the IC50 in series [1] (primary T cells, mitotic index) was under 80 nM; in series [2], 5000 nM. Moreover, in series [2], the “antiviral and antiproliferative activity and cytotoxicity profile (in words)” value was “good antiviral and antiproliferative activity and a good cytotoxicity profile”.
In the case of `COc1ccc(Nc2cc(-c3cc(F)ccc3OC)ncn2)cc1N` [Example 75, N^1-[6-(5-Fluoro-2-methoxy-phenyl)-pyrimidin-4-yl]-4-methoxy-benzene-1,3-diamine], the IC50 in series [1] (primary T cells, mitotic index) is under 80 nM. Besides, in series [2], the IC50 was determined as 10 nM; the “antiviral and antiproliferative activity and cytotoxicity profile (in words)” value was “good antiviral and antiproliferative activity and a good cytotoxicity profile”.
Regarding `COc1ccc(Nc2cc(-c3ccccc3OC(C)C)ncn2)cc1N` [Example 79, N^1-[6-(2-Isopropoxy-phenyl)-pyrimidin-4-yl]-4-methoxy-benzene-1,3-diamine], the IC50 in series [1] (primary T cells, mitotic index) was under 80 nM; in series [2], 8 nM. Further, in series [2], the “antiviral and antiproliferative activity and cytotoxicity profile (in words)” value is “good antiviral and antiproliferative activity and a good cytotoxicity profile”.
With `CCOc1ccc(Nc2cc(-c3ccccc3OC)ncn2)cc1C(N)=O` [Example 111, 2-Ethoxy-5-[6-(2-methoxy-phenyl)-pyrimidin-4-ylamino]-benzamide], the IC50 in series [1] (primary T cells, mitotic index) came out at 16 nM; in series [2] it was 7 nM. In series [2], the “antiviral and antiproliferative activity and cytotoxicity profile (in words)” value is “good antiviral and antiproliferative activity and a good cytotoxicity profile”.
With `CCOc1ccc(Nc2cc(-c3ccc(F)cc3OC)ncn2)cc1C(N)=O` [Example 112, 2-Ethoxy-5-[6-(4-fluoro-2-methoxy-phenyl)-pyrimidin-4-ylamino]-benzamide], in series [1] (primary T cells, mitotic index), the IC50 is under 3 nM. In series [2], the IC50 was determined as 6 nM; the “antiviral and antiproliferative activity and cytotoxicity profile (in words)” value is “good antiviral and antiproliferative activity and a good cytotoxicity profile”.
`COc1ccc(Nc2cc(-c3ccc(F)cc3OC)ncn2)cc1NC(C)=O` [Example 117, N-{5-[6-(4-Fluoro-2-methoxy-phenyl)-pyrimidin-4-ylamino]-2-methoxy-phenyl}-acetamide]: in series [2], the IC50 turned out to be 200 nM. In addition, in series [3], the “TD50 (Toxic dose 50%)” value is over 2 µM.
As to `COC(=O)Nc1cc(Nc2cc(-c3ccc(F)cc3OC)ncn2)ccc1OC` [Example 118, {5-[6-(4-Fluoro-2-methoxy-phenyl)-pyrimidin-4-ylamino]-2-methoxy-phenyl}-carbamic Acid Methyl Ester], the IC50 in series [2] was 1500 nM. For the same compound, in series [3], the “TD50 (Toxic dose 50%)” value is over 2 µM.
With `COc1ccc(Nc2cc(-c3cc(F)ccc3OC)ncn2)cc1C(N)=O` [Example 127, 5-[6-(5-Fluoro-2-methoxy-phenyl)-pyrimidin-4-ylamino]-2-methoxy-benzamide], the IC50 was under 80 nM in series [1] and 3 nM in series [2]. In series [2], the “antiviral and antiproliferative activity and cytotoxicity profile (in words)” value was “good antiviral and antiproliferative activity and a good cytotoxicity profile”.
In the case of `COc1ccc(Nc2cc(-c3ccc(F)cc3OC)ncn2)cc1C(N)=O` [Example 128, 5-[6-(4-Fluoro-2-methoxy-phenyl)-pyrimidin-4-ylamino]-2-methoxy-benzamide], the values for the IC50 in series [1] and in series [2] were 30 nM and under 3 nM, respectively. For the same compound, the “antiviral and antiproliferative activity and cytotoxicity profile (in words)” value in series [2] was “good antiviral and antiproliferative activity and a good cytotoxicity profile”.
For `CCOc1ccccc1-c1cc(Nc2ccc(OC)c(C(N)=O)c2)ncn1` [Example 129, 5-[6-(2-Ethoxy-phenyl)-pyrimidin-4-ylamino]-2-methoxy-benzamide], the IC50 in series [1] is under 80 nM. In series [2], the IC50 came to 10 nM; the “antiviral and antiproliferative activity and cytotoxicity profile (in words)” value was “good antiviral and antiproliferative activity and a good cytotoxicity profile”.
For `CCOc1ccc(F)cc1-c1cc(Nc2cc(F)c(OC)c(C(N)=O)c2)ncn1` [Example 142, 5-[6-(2-Ethoxy-5-fluoro-phenyl)-pyrimidin-4-ylamino]-3-fluoro-2-methoxy-benzamide], the IC50 in series [1] turned out to be 40 nM. In series [2], the IC50 stood at 40 nM; the “antiviral and antiproliferative activity and cytotoxicity profile (in words)” value is “good antiviral and antiproliferative activity and a good cytotoxicity profile”.
On to `COc1cc(F)c(Nc2cc(-c3ccccc3OC)ncn2)cc1C(N)=O` [Example 143, 4-Fluoro-2-methoxy-5-[6-(2-methoxy-phenyl)-pyrimidin-4-ylamino]-benzamide], for which the IC50 in series [1] was over 80 nM. Moreover, in series [2], the IC50 was determined as 16 nM; the “antiviral and antiproliferative activity and cytotoxicity profile (in words)” value was “good antiviral and antiproliferative activity and a good cytotoxicity profile”.
For `COc1cc(F)c(Nc2cc(-c3cc(F)ccc3OC)ncn2)cc1C(N)=O` [Example 144, 4-Fluoro-5-[6-(5-fluoro-2-methoxy-phenyl)-pyrimidin-4-ylamino]-2-methoxy-benzamide], the IC50 in series [1] came out at 90 nM. In series [2], the IC50 is under 3 nM; the “antiviral and antiproliferative activity and cytotoxicity profile (in words)” value was “good antiviral and antiproliferative activity and a good cytotoxicity profile”.
`CCOc1ccccc1-c1cc(Nc2cc(C(N)=O)c(OC)cc2F)ncn1` [Example 145, 5-[6-(2-Ethoxy-phenyl)-pyrimidin-4-ylamino]-4-fluoro-2-methoxy-benzamide]: the IC50 is 50 nM in series [1] and 30 nM in series [2]. Also, in series [2], the “antiviral and antiproliferative activity and cytotoxicity profile (in words)” value is “good antiviral and antiproliferative activity and a good cytotoxicity profile”.
Turning to `COc1cc(F)c(Nc2cc(-c3ccc(F)cc3OC)ncn2)cc1C(N)=O` [Example 146, 4-Fluoro-5-[6-(4-fluoro-2-methoxy-phenyl)-pyrimidin-4-ylamino]-2-methoxy-benzamide], in series [1], the IC50 came out at 40 nM. For the same compound, in series [2], the IC50 is under 3 nM; the “antiviral and antiproliferative activity and cytotoxicity profile (in words)” value is “good antiviral and antiproliferative activity and a good cytotoxicity profile”.
As for `CCOc1cc(F)ccc1-c1cc(Nc2cc(C(N)=O)c(OC)cc2F)ncn1` [Example 147, 5-[6-(2-Ethoxy-4-fluoro-phenyl)-pyrimidin-4-ylamino]-4-fluoro-2-methoxy-benzamide], the IC50 in series [1] is 40 nM. Besides, in series [2], the IC50 turned out to be 5 nM; the “antiviral and antiproliferative activity and cytotoxicity profile (in words)” value is “good antiviral and antiproliferative activity and a good cytotoxicity profile”.
In the case of `CN1CC[C@H](c2c(O)cc(O)c3c(=O)cc(-c4ccccc4Cl)oc23)[C@H](O)C1` [Flavopiridol, reference compound], the IC50 in series [1] (primary T cells, mitotic index) was found to be 30 nM; in series [2] (HIV-1 infected activated primary T cells, p24), 100 nM. For the same compound, in series [2] (summary of AV and cytotoxicity assays), the “anti-HIV and cytotoxicity profile (in words)” value is “poor anti-HIV and cytotoxicity profile”.
